According to patent US12209078B2, “Crystalline forms of carbazole inhibitors of RhoGTPase for the treatment of disease” (MBQ Pharma, priority 2021, dated 2025):

How the values were obtained:
[1] = Differential scanning calorimetry (DSC); format: physicochemical; conditions: heating 5.0° C./min under N2
Method: Differential Scanning calorimetry (DSC) DSC was performed to determine the melting temperature (Tm) and enthalpy of fusion (ΔfusH) of MBQ-167. A differential scanning calorimeter (DSC) from TA Instruments Inc. (Q2000) equipped with a RCS40 single-stage refrigeration system was employed to carry out these measurements. The calibration of the DSC was conducted with an indium standard (Tm=156.6° C. and ΔfusH=28.54 J/g). Between 1.000-3.000 mg of the crystalline sample was weighed using a XP26 microbalance from Mettler Toledo (±0.002 mg) and placed on Tzero aluminum pans that were hermetically sealed. Samples were equilibrated at 25° C. for 5 min before heating to 250° C. at a rate of 5.0° C./min and then was cooled to 25° C. at a heating rate of 10° C./min under a N2 atmosphere (50 mL/min) and a temperature accuracy of 0.1° C.
A first endothermic peak, with an onset of 128.22° C. and centered at 129.82° C., corresponding to 0.4504 W/g, is followed by a second endothermic peak, with an onset of 152.81° C. and centered at 153.64° C., corresponding to 0.5809 W/g.
Overlay of the two DSC thermographs, shown in FIG. 3, makes apparent the source of the behavior of the Form II polymorph. The Form I polymorph undergoes a single endothermic phase transition to the melt. […]

[2] = Thermogravimetric analysis (TGA); format: physicochemical; conditions: heating to 400° C. under N2 at 5.0° C./min
Method: Thermogravimetric Analysis (TGA) Thermographs were recorded in a Thermogravimetric Analyzer (TGA) from TA Instruments Inc. (Q500) calibrated with calcium oxalate monohydrate (CaC2O4·H2O) standard to determine if MBQ-167 degrades before melting. Between 1.000-2.000 mg of the crystalline sample were equilibrated at 25° C. for 5 min before heating to 400° C. under N2 atmosphere (60 mL/min) at a rate of 5.0° C./min and a temperature accuracy of 0.1° C. Data was analyzed with the TA Universal Analysis 2000 software (version 4.5A).
Decomposition of the Form I polymorph (a) begins at about 184.7° C., while onset for decomposition of the Form II polymorph (b) begins at about 193.0° C.

SMILES	centre of first endothermic peak (phase transition to the more stable Form I polymorph) [1] [°C]	onset of first endothermic peak (phase transition to the more stable Form I polymorph) [1] [°C]	onset of decomposition (TGA) [2]	decomposition relative to melting (TGA) [2]
CCn1c2ccccc2c2cc(-n3nncc3-c3ccccc3)ccc21 [Form II polymorph, 9-Ethyl-3-(5-phenyl-1H-1,2,3-triazol-1-yl)-9H-carbazole]	129.82	128.22	about 193.0 °C	–
CCn1c2ccccc2c2cc(-n3nncc3-c3ccccc3)ccc21 [MBQ-167, 9-ethyl-3-(5-phenyl-1H-1,2,3-triazol-1-yl)-9H-carbazole]	–	–	–	starts to decompose after the melting temperature
CCn1c2ccccc2c2cc(-n3nncc3-c3ccccc3)ccc21 [Form I polymorph, 9-Ethyl-3-(5-phenyl-1H-1,2,3-triazol-1-yl)-9H-carbazole]	–	–	about 184.7 °C	–
